This data set is described as follows: Physicochemical parameters of Luc-mRNA-LNP (particle size, PDI, zeta potential, encapsulation efficiency). The following applies: lipid formulation of Table 1. How it is done: The lipid compound of the present disclosure, neutral lipid (phospholipid), and PEG lipid were dissolved in an ethanol solution according to a specific molar ratio (detailed formulation shown in Table 1). The mRNA was dissolved in a citric acid buffer (pH 4.0) to a final concentration of 135 ng/µL. The LNP mixture and the mRNA dilution were mixed at a volume ratio of 1:3, and mRNA-LNP complexes were prepared using a microfluidic nano-preparation system with a flow rate ratio of 1:3 between the LNP mixture and the mRNA dilution, that is, the LNP volume:the mRNA volume was 1:3. After dilution with a 10× phosphate buffer solution (pH 7.4), ultrafiltration concentration was performed, followed by about 500-fold dilution with solution replacement. An experimental sample was obtained after sterile filtration. Samples were taken and analyzed for average particle size, PDI, and Zeta potential. Table 1: Three-component LNP lipid formulation based on cholesterol cationic lipid compound
Example 13: Preparation, Characterization, and In Vitro Cell Transfection Activity Evaluation of Luc-mRNA-LNP Using luciferase gene Luc-mRNA and referring to the preparation method provided in Example 12 and the lipid formulation provided in Table 1, Luc-mRNA-LNP was constructed, whose encapsulation efficiency, average particle size, PDI, and zeta potential data are shown in Table 2. […]

As to `CCCCCCCCCCCOC(=O)CCCCCN(CCO)CCCCCCCC(=O)OC(CCCCCCCC)CCCCCCCC` [SM-102], the “Encapsulation efficiency (%)” value is recorded as “below 15%”.

The record behind these values is patent EP4628497A1, “STEROID-CATIONIC LIPID COMPOUND AND USE THEREOF” (Jenkem Technology Co., Ltd. (Liaoning), priority 2023, dated 2024).
